Laboratory results published in patent publication EP4653443A1, “STEREOISOMER AND DEUTERATED DERIVATIVE OF PYRAZOLOQUINAZOLINE COMPOUND AND USE” (Phil Rivers Technology Co., Ltd, priority 2023, dated 2024).
Converted amounts (≈) assume the structure as drawn.

Key:
[1] = test system: pancreatic cancer cell line (PSN1); experiment: Proliferation inhibitory activity on cell line PSN1 (CellTiter-Glo, 72 hours); format: cell-based; details: for IC50: Homo sapiens, PSN1 cell proliferation; for Max Inhibition Percentage: PSN1 cells
Method: • a) Adherent cells need to be digested and centrifuged, while suspension cells can be directly centrifuged; • b) Resuspend with complete culture medium and count using an automatic cell counter; • c) Plate 6,000 cells per well for PSN1, and dilute the cell suspension to the required density; • d) Add 100 µL of cells per well, and culture overnight at 37°C in a 5% CO2 incubator to stabilize and balance the cells.
• a) Prepare the compound with DMSO as a solution of 200-fold final concentration; • b) Dilute the 200-fold compound to a 3-fold final concentration with complete culture medium; • c) Add 50 µL of the compound per well, use wells with the same volume of culture medium as controls, and continue culturing in a 37°C, 5% CO2 incubator for 72 hours.
• a) Equilibrate the cell plate and CTG reagent to room temperature; • b) Add 30 µL of CellTiter-Glo® reagent per well; • c) Incubate at room temperature for 15 minutes; • d) Detect with a microplate reader.
• 1) Calculate IC50 using GraphPad Prism 8; • 2) %Inh = (1-(Raw data - Meanmin) / (Meanmax - Meanmin))×100; • 3) Meanmax is the positive control well with only cells and the same volume of culture medium; • 4) Meanmin is the negative control well with only culture medium; • 5) Raw data refers to the signal values of wells with added compounds. For two replicate wells, they are denoted as Raw1 and Raw2.

in vivo = details: mouse, in vivo, iv, 2 mg/kg
Method: (§4) The objective of this study is to investigate the pharmacokinetic properties of the disclosed compounds after tail vein intravenous injection (IV) and oral administration (PO) in female CD1 mice. Plasma was sampleed at 0, 0.083, 0.25, 0.5, 1, 2, 4, 7 and 24 hours post-dosing, and the drug concentrations in plasma at different time points were detected by LC-MS/MS, and the relevant pharmacokinetic parameters were calculated using WinNonlin software.
(§5) Experimental female CD1 mice were purchased from SPF Laboratory Animal Technology Co., Ltd., aged 6-8 weeks with body weights of 20-30 g. The female CD1 mice were housed in a controlled environment (set temperature at 20-25°C and relative humidity at 40-70%). A 12-hour light/12-hour dark cycle was maintained unless interrupted by study-related events.
(§6) Compound solutions are prepared in an ultra-clean workbench and prepared immediately before use, and mixed thoroughly prior to use to ensure formulation homogeneity.
(§7) Vehicle composition: 10% DMSO+90% (20%SBE-β-CD) Table 4. Doses Used in IV Administration
(§8) Vehicle composition: 10% DMSO + 90% (20%SBE-β-CD) Table 5. Doses Used in PO Administration
(§9) Vehicle composition: 0.5% MC + 1% Tween-20 Table 6. Doses Used in PO Administration
(§10) Prior to the experiment, the animals were randomly grouped. The mice were fasted for 12 hours before drug administration, and free feeding was resumed 4 hours after administration.
(§11) All blood samples were transferred into plastic microcentrifuge tubes containing anticoagulant (EDTA-K2), and then centrifuged at 4000 g for 5 minutes at 4°C. The supernatant was transferred into a microcentrifuge tube without anticoagulant, and the plasma was stored in a -75±15°C refrigerator until detection.
(§12) The blood samples were purified by HPLC and analyzed by mass spectrometry to obtain the plasma concentration-time curve of the disclosed compound.
(§13) The pharmacokinetic parameters were estimated by non-compartmental model method (calculated by Phoenix WinNonlin software).

[2] = Pharmacokinetic study in mice (IV and PO, plasma LC-MS/MS); details: PO 5 mg/kg vs IV 2 mg/kg
Method: as §4, §5, §6, §7, §8, §9, §10, §11, §12, §13

[3] = Metabolic stability in liver microsomes (human); format: in vitro ADME; details: for Residual Amount (%) 15 min / Residual Amount (%) 30 min / Residual Amount (%) 45 min / Residual Amount (%) 60 min: Human, first line of pair
Method: (§1) For negative samples, add 80µL of PBS (100mM, pH = 7.4) solution. Vortex at 800 rpm for 10 seconds, then pre-incubate in a 37°C water bath for 10 minutes. • 4) After pre-incubation, add 2 µL of control drug or test compound to each well to initiate the reaction. The reaction is carried out in a 37°C water bath at 60 rpm. • 5) At 0.5, 15, 30, 45, and 60 minutes, take 50 µL of the reaction system from each well and add it to 200 µL of cold methanol solution containing the internal standard to terminate the reaction. • 6) Mix thoroughly and centrifuge at 4000 rpm at 4°C for 30 minutes. • 7) Take 100µL of supernatant and mix with 100µL ultrapure water for liquid-mass analysis. *Internal standards: 50nM alprazolam, 50nM labetalol and 100nM ketoprofen
(§2) The internal standard method is adopted, and the ratio of the sample peak area to the internal standard peak area is used to calculate the residual percentage (taking the ratio of the sample peak area to the internal standard peak area at 0.5 minutes as 100%).

[4] = Thermodynamic solubility test; format: physicochemical; details: phosphate buffer, aqueous buffer, thermodynamic from solid, pH 7.4, 25°C
Method: Weigh 7.098 g Na2HPO4 (Solution A) and dissolve in 500 mL ultrapure water via sonication; weigh 3.40 g KH2PO4 (Solution B) and dissolve in 250 mL ultrapure water via sonication. Slowly add Solution B dropwise to Solution A and adjust the pH to 7.40 ± 0.05.
Shake at 1100 rpm, 25°C for 5 minutes; • i) Add 10 µL of the 1 mg/mL DMSO sample and 10 µL of buffer to 980 µL of methanol, then dilute 10-fold with methanol:water (1:1) as the standard sample for LC-MS/MS analysis.
Solubility was calculated using Excel. Solubility(μM) = (Areafiltered × DFfiltered)/(Areastd × DFstd) × [std] × DFstd [formula]

[5] = Metabolic stability in liver microsomes (mouse); format: in vitro ADME; details: for Residual Amount (%) 15 min / Residual Amount (%) 30 min / Residual Amount (%) 45 min / Residual Amount (%) 60 min: Mouse, first line of pair
Method: as §1, §2

Caco-2 cells = experiment: Permeability and transporter substrate test in Caco-2 cells (ABBA); format: in vitro ADME; details: Caco-2
Method: (§3) Apparent permeability coefficient (Papp, cm/s) and efflux ratio were calculated using Microsoft Excel.

[6] = as above; format: in vitro ADME; details: human, pH 7.4; for Papp A→B at 2 h, 5 µM: Caco-2, A to B, read-out: Average Papp PappA-B; for Papp B→A at 2 h, 5 µM: Caco-2, B to A, read-out: Average Papp PappB-A; for efflux ratio at 2 h, 5 µM: Caco-2, Papp(B-A)/Papp(A-B), read-out: Efflux Rate (ERa)
Method: as §3

SMILES | IC50 [1] [nM] | Max Inhibition Percentage ([1]; first column of this head) | Max Inhibition Percentage ([1]; second column of this head) | AUC(0-t) (in vivo) [ng·h/mL] | Vd (in vivo) [L/kg] | clearance (in vivo) [mL/min/kg] | half-life (in vivo) [min] | F [2] [%] | Residual Amount (%) 15 min [3] [%] | Residual Amount (%) 30 min [3] [%] | Residual Amount (%) 45 min [3] [%] | Residual Amount (%) 60 min [3] [%] | Residual Amount (%) 15 min [5] [%] | Residual Amount (%) 30 min [5] [%] | Residual Amount (%) 45 min [5] [%] | Residual Amount (%) 60 min [5] [%] | Classification Efflux Transporter Substrate (Caco-2 cells) | Papp A→B at 2 h, 5 µM [6] [×10⁻⁶ cm/s] | Papp B→A at 2 h, 5 µM [6] [×10⁻⁶ cm/s] | efflux ratio at 2 h, 5 µM [6] | other results
NC(=O)c1nn(CCO)c2c1CCc1cnc(Nc3cc(N4CCN5CCC[C@H]5C4)ccc3OC(F)(F)F)nc1-2 [CPD03] | 256 | 73.6 | -3.1 | 433 | 4.29 | 79.1 | 226 | 16.2 |  |  |  |  |  |  |  |  |  |  |  |  | 
NC(=O)c1nn(CCO)c2c1CCc1cnc(Nc3cc(N4CCN5CCC[C@@H]5C4)ccc3OC(F)(F)F)nc1-2 [CPD02] | 67.6 | 80.8 | 6.7 | 404 | 3.05 | 81.7 | 81.6 | 38.0 | 54.16 | 32.53 | 22.97 | 13.71 | 56.76 | 39.33 | 30.29 | 26.56 | Probable (ERa ≧ 2) | 7.83 | 23.8 | 3.04 | half-life ([3]; Human liver microsomes): 21.4 min; microsomal CLint ([3]; Human liver microsomes): 64.8 µL/min/mg; solubility at 24 h [4]: 2.1 µg/mL (≈ 3.76 µM); half-life ([5]; Mouse liver microsomes): 31.5 min; microsomal CLint ([5]; Mouse liver microsomes): 44 µL/min/mg
CC(C)NCC(O)COc1cccc2ccccc12 (centres unmarked) [Propranolol] |  |  |  |  |  |  |  |  |  |  |  |  |  |  |  |  | Unlikely or Not (ERa<2) | 22.3 | 14.7 | 0.66 | 
COc1cc2nc(N3CCN(C(=O)c4ccco4)CC3)nc(N)c2cc1OC [Prazosin] |  |  |  |  |  |  |  |  |  |  |  |  |  |  |  |  |  | 8.97 | 29.6 |  | 
O=C(O)Cc1ccccc1Nc1c(Cl)cccc1Cl [Diclofenac, reference compound] |  |  |  |  |  |  |  |  | 10.78 | 5.62 | 3.65 | 2.93 | 61.24 | 56.66 | 51.87 | 45.26 |  |  |  |  | microsomal CLint at 2 µM ([3]; pH 7.4, Human liver microsomes): 194 µL/min/mg; microsomal CLint ([5]; male, CD-1, pH 7.4, Mouse liver microsomes): 67.6 µL/min/mg
C[C@H]1O[C@@H](O[C@H]2[C@@H](O)C[C@H](O[C@H]3[C@@H](O)C[C@H](O[C@H]4CC[C@@]5(C)[C@H](CC[C@@H]6[C@@H]5C[C@@H](O)[C@]5(C)[C@@H](C7=CC(=O)OC7)CC[C@]65O)C4)O[C@@H]3C)O[C@@H]2C)C[C@H](O)[C@@H]1O [Digoxin] |  |  |  |  |  |  |  |  |  |  |  |  |  |  |  |  | Probable (ERa ≧ 2) | 0.94 | 26.1 | 27.8 | 
